Data reported in US12533339B2, “Small molecule antiviral drug treatment for human papillomavirus infections” (THE TRUSTEES OF INDIANA UNIVERSITY, priority 2020, dated 2026).
Read-outs that look alike come from different tables or passages of the source.

Legend:
[1] = target: T1, E6 WT/E6AP (Human papillomavirus type 16, UniProt P03126); assay: biochemical; format: binding; conditions: WT 16E6; for inhibition at 10 µM: 10 μM compound; for inhibition at 100 µM: 100 μM compound
[2] = target: T1, E6 WT/E6AP; assay: biochemical; format: binding; conditions: at 24 h; for IC50: 2 μM E6 WT pre-incubated with compound; for Emax: E6 WT, read-out: BLI maximal Inhibition (max %) E6 WT/E6AP
[3] = target: T2, E6C51S/E6AP (Human papillomavirus type 16, UniProt P03126, C58S); assay: BLI binding assay, E6 C51S binding to captured E6AP; parameters: species or system HPV-16; conditions: for BLI maximal Inhibition (max %) E6C51S/E6AP: at 24 h, E6 C51S
[4] = target: T2, E6C51S/E6AP; assay: E6/E6AP binding assay (amylose-bound MBP-16E6, E6AP-BAP activity), C51S 16E6; parameters: species or system HPV-16; conditions: for % Inhibition @ 10 μM E6C51S/E6AP: 10 μM compound; for % Inhibition @ 100 μM E6C51S/E6AP: 100 μM compound
[5] = target: T1, E6 WT/E6AP; assay: biochemical; format: binding; conditions: for Emax: 24 h, read-out: FP maximal inhibition (max %) E6 WT/E6AP; for IC50: FP IC50 at 24 h (μM) E6 WT/E6AP

T1 sequence (P03126 8-158): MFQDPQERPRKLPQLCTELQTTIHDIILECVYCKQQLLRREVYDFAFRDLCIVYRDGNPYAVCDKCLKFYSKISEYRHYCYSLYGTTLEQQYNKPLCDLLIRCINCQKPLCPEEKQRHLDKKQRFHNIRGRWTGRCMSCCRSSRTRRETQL
T2 sequence (P03126 whole entry C58S, looked up): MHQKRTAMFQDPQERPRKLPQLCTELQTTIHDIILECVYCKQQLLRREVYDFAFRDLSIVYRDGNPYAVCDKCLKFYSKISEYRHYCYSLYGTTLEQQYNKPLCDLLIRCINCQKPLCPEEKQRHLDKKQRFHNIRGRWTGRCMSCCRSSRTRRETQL

| Compound | inhibition at 10 µM [1] | inhibition at 100 µM [1] | IC50 [2] | Emax [2] | loss of ability to inhibit mutant form E6-Cys51Ser (BLI), in words ([3]; FIG. 1B, E6-Cys51Ser) | % Inhibition @ 10 μM E6C51S/E6AP [4] | % Inhibition @ 100 μM E6C51S/E6AP [4] | BLI maximal Inhibition (max %) E6C51S/E6AP [3] | Emax [5] | IC50 [5] | FP maximal inhibition (max %) E6 WT/E6AP ([5]; at 24 h) |
| --- | --- | --- | --- | --- | --- | --- | --- | --- | --- | --- | --- |
| C=CC(=O)N1CCCN(C(=O)CN2CCc3sccc3C2c2ccccc2C)CC1 (centres unmarked) [EIN-122, 1-(4-(2-(4-(o-tolyl)-6,7-dihydrothieno[3,2-c]pyridin-5(4H)-yl)acetyl)-1,4-diazepan-1-yl)prop-2-en-1-one] | 0% | 97 ± 1% | 62.7 ± 12.1 µM | 100% | nearly completely lost | – | – | – | – | – | – |
| O=C(CCl)N1CCN(c2nc(CCc3ccccc3)nc3sc4c(c23)CCCC4)CC1 [EIN-125, 2-chloro-1-(4-(2-phenethyl-5,6,7,8-tetrahydrobenzo[4,5]thieno[2,3-d]pyrimidin-4-yl)piperazin-1-yl)ethan-1-one] | 54 ± 13% | 102 ± 10% | – | 100% | – | 32 ± 11% | 62 ± 1% | (max 100%) | – | – | – |
| C=CC(=O)N1CCN(c2nc(CCc3ccccc3)nc3sc4c(c23)CCCC4)CC1 [EIN-132, 1-(4-(2-phenethyl-5,6,7,8-tetrahydrobenzo[4,5]thieno[2,3-d]pyrimidin-4-yl)piperazin-1-yl)prop-2-en-1-one] | 3.5 ± 2% | 61 ± 2% | – | 100% | – | 0% | 19 ± 5% | (max 100%) | – | – | – |
| C=CC(=O)N1CCN(c2nc(-c3ccccc3)nc3sc4c(c23)CCCC4)CC1 [EIN-133, 1-(4-(2-phenyl-5,6,7,8-tetrahydrobenzo[4,5]thieno[2,3-d]pyrimidin-4-yl)piperazin-1-yl)prop-2-en-1-one] | 26 ± 7% | 41 ± 5% | 14.9 ± 6.6 µM | 60% | – | 0% | 0% | – | 9% | 10.4 ± 0.7 µM | – |
| C=CC(=O)N1CCN(c2nc(NCc3ccccc3)nc3sc4c(c23)CCCC4)CC1 [EIN-134, 1-(4-(2-(benzylamino)-5,6,7,8-tetrahydrobenzo[4,5]thieno[2,3-d]pyrimidin-4-yl)piperazin-1-yl)prop-2-en-1-one] | 18 ± 6% | 35 ± 4% | 32.6 ± 19.2 µM | 100% | – | 0% | 0% | – | 11% | 12.1 ± 0.7 µM | – |
| C=CC(=O)N1CCN(c2nc(Cc3ccccc3)nc3sc4c(c23)CCCC4)CC1 [EIN-135, 1-(4-(2-benzyl-5,6,7,8-tetrahydrobenzo[4,5]thieno[2,3-d]pyrimidin-4-yl)piperazin-1-yl)prop-2-en-1-one] | 0% | 52 ± 5% | 10.9 ± 3.4 µM | 85% | – | 12 ± 3% | 25 ± 4% | – | 27% | 15.4 ± 0.4 µM | – |
| C=CC(=O)N1CCN(c2nc(CCc3ccc(F)cc3)nc3sc4c(c23)CCCC4)CC1 [EIN-136, 1-(4-(2-(4-fluorophenethyl)-5,6,7,8-tetrahydrobenzo[4,5]thieno[2,3-d]pyrimidin-4-yl)piperazin-1-yl)prop-2-en-1-one] | 41 ± 7% | 69 ± 2% | 2.7 ± 0.3 µM | 100% | – | – | – | – | 55% | 12 ± 0.9 µM | – |
| C=CC(=O)N1CCN(c2nc(CCc3cccc(F)c3)nc3sc4c(c23)CCCC4)CC1 [EIN-137, 1-(4-(2-(3-fluorophenethyl)-5,6,7,8-tetrahydrobenzo[4,5]thieno[2,3-d]pyrimidin-4-yl)piperazin-1-yl)prop-2-en-1-one] | 35 ± 4% | 56 ± 4% | 4.9 ± 0.6 µM | 90% | – | 15 ± 3% | 16 ± 5% | – | – | – | – |
| C=CC(=O)N1CCN(c2nc(CCc3ccccc3F)nc3sc4c(c23)CCCC4)CC1 [EIN-138, 1-(4-(2-(2-fluorophenethyl)-5,6,7,8-tetrahydrobenzo[4,5]thieno[2,3-d]pyrimidin-4-yl)piperazin-1-yl)prop-2-en-1-one] | 20 ± 6% | 57 ± 3% | 4.1 ± 0.5 µM | 90% | – | 16 ± 6% | 19 ± 7% | – | – | – | – |
| C=CC(=O)N1CCN(c2nc(N(C)Cc3ccccc3)nc3sc4c(c23)CCCC4)CC1 [EIN-139, 1-(4-(2-(benzyl(methyl)amino)-5,6,7,8-tetrahydrobenzo[4,5]thieno[2,3-d]pyrimidin-4-yl)piperazin-1-yl)prop-2-en-1-one] | 13 ± 7% | 21 ± 4% | – | – | – | 0% | 6 ± 3% | – | 8% | 33.1 ± 1.3 µM | – |
| C=CC(=O)N1CCN(c2nc(CCc3cccc(OC)c3)nc3sc4c(c23)CCCC4)CC1 [EIN-143, 1-(4-(2-(3-methoxyphenethyl)-5,6,7,8-tetrahydrobenzo[4,5]thieno[2,3-d]pyrimidin-4-yl)piperazin-1-yl)prop-2-en-1-one] | 44 ± 9% | 78 ± 3% | 2.5 ± 0.5 µM | 100% | – | 19 ± 7% | 23 ± 10% | – | – | – | (max 93%) |
| C=CC(=O)N1CCN(c2nc(CCc3ccc(OC)cc3)nc3sc4c(c23)CCCC4)CC1 [EIN-144, 1-(4-(2-(4-methoxyphenethyl)-5,6,7,8-tetrahydrobenzo[4,5]thieno[2,3-d]pyrimidin-4-yl)piperazin-1-yl)prop-2-en-1-one] | 12 ± 6% | 45 ± 4% | 1.6 ± 0.5 µM | 62% | – | 9 ± 9% | 17 ± 5% | – | 63% | 14.8 ± 1.2 µM | – |
| C=CC(=O)N1CCN(c2nc(CCc3ccccc3OC)nc3sc4c(c23)CCCC4)CC1 [EIN-145, 1-(4-(2-(2-methoxyphenethyl)-5,6,7,8-tetrahydrobenzo[4,5]thieno[2,3-d]pyrimidin-4-yl)piperazin-1-yl)prop-2-en-1-one] | 32 ± 4% | 51 ± 2% | 2 ± 0.9 µM | 65% | – | 20 ± 6% | 23 ± 7% | – | 59% | 15 ± 1.2 µM | – |
| CC#CC(=O)N1CCN(c2nc(CCc3cccc(OC)c3)nc3sc4c(c23)CCCC4)CC1 [EIN-147, 1-(4-(2-(3-methoxyphenethyl)-5,6,7,8-tetrahydrobenzo[4,5]thieno[2,3-d]pyrimidin-4-yl)piperazin-1-yl)but-2-yn-1-one] | – | – | – | 100% | – | – | – | (max 100%) | – | – | – |
| COc1cccc(CCc2nc(N3CCN(C(=O)/C=C/CN(C)C)CC3)c3c4c(sc3n2)CCCC4)c1 [EIN-148, (E)-4-(dimethylamino)-1-(4-(2-(3-methoxyphenethyl)-5,6,7,8-tetrahydrobenzo[4,5]thieno[2,3-d]pyrimidin-4-yl)piperazin-1-yl)but-2-en-1-one] | – | – | 3.3 ± 0.3 µM | 100% | – | – | – | – | 100% | 20.4 ± 3 µM | – |
| C=CC(=O)N1CCN(c2nc(CCc3cccc(OC)c3)nc3sc4c(c23)CCCCC4)CC1 [EIN-150, 1-(4-(2-(3-methoxyphenethyl)-6,7,8,9-tetrahydro-5H-cyclohepta[4,5]thieno[2,3-d]pyrimidin-4-yl)piperazin-1-yl)prop-2-en-1-one] | – | – | – | 100% | – | – | – | (max 100%) | 57% | – | – |
| C=CC(=O)N1CCN(c2nc(Cc3ccccc3)nc3ccccc23)CC1 [EIN-156, 1-(4-(2-benzylquinazolin-4-yl)piperazin-1-yl)prop-2-en-1-one] | – | – | – | 100% | – | – | – | (max 100%) | – | – | – |
| C=CC(=O)N1CCN(c2nc(-c3ccccc3)nc3ccccc23)CC1 [EIN-157, 1-(4-(2-phenylquinazolin-4-yl)piperazin-1-yl)prop-2-en-1-one] | – | – | – | 100% | – | – | – | (max 100%) | – | – | – |
